Measured values reported in patent US20120214847A1, “2-[1-PHENYL-5-HYDROXY-4a-SUBSTITUTED-HEXAHYDROCYCLOPENTA[F]INDAZOL-5-YL]ETHYL PHENYL DERIVATIVES AS GLUCOCORTICOID RECEPTOR LIGANDS” (Merck Sharp & Dohme Corp., priority 2009, published 2012).

Biological target: T1, human GR (Homo sapiens, UniProt P04150)
T1 construct: naturally expresses the human GR; endogenous in cells
T1 sequence (P04150 1-777): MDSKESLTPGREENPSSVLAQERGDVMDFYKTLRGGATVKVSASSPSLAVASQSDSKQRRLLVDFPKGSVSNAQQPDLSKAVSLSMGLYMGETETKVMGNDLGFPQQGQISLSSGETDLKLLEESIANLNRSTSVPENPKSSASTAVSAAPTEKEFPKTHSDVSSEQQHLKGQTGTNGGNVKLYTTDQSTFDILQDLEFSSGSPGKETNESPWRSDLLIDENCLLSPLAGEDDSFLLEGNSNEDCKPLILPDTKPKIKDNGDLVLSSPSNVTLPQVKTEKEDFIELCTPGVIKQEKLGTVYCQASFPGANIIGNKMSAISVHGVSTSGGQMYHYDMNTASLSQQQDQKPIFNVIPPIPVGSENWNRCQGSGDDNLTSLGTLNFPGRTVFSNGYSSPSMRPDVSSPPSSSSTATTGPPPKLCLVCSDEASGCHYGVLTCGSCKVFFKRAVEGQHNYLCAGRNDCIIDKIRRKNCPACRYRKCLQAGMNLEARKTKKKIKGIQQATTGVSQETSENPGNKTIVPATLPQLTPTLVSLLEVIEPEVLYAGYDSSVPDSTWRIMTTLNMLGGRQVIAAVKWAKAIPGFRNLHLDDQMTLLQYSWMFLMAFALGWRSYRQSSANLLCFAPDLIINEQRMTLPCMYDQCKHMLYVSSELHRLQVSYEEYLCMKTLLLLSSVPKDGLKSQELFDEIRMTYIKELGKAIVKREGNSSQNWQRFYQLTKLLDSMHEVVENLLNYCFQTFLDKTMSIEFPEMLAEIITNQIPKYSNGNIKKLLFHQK
Test: Transrepression assay (GITAR), TNFα-β-lactamase reporter in U937 cells
Assay type: cell-based
Conditions: for EC50: U937 cells, IP = inflection point; for Emax: U-937, U937 cells, activity repressed by 100 nM dexamethasone alone set as 100%
Method in brief: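 U937 cells stably carrying TNFα promoter–β-lactamase, endogenous GR, preincubated with compound 30–45 min at 37° C., then stimulated with 5 ng/ml PMA plus 100 ng/ml LPS for ~18 h. CCF2-AM read-out; repression by 100 nM dexamethasone set as 100%.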

| SMILES | EC50 [nM] | Emax [%] |
| --- | --- | --- |
| CC[C@]12Cc3cnn(-c4cccnc4)c3C=C1CC[C@@]2(O)CCc1ccccc1C#N [Example 5, 2-{2-[(4aS,5R)-4a-Ethyl-5-hydroxy-1-(pyridin-3-yl)-1,4,4a,5,6,7-hexahydrocyclopenta[f]indazol-5-yl]ethyl}benzonitrile] | 31 | 80 |
| CC[C@]12Cc3cnn(-c4ccc(F)cc4)c3C=C1CC[C@@]2(O)CCc1ccccc1S(=O)(=O)C(C)C [Example 40, (4aS,5R)-4a-Ethyl-1-(4-fluorophenyl)-5-{2-[2-(propan-2-ylsulfonyl)phenyl]ethyl}-1,4,4a,5,6,7-hexahydrocyclopenta[f]indazol-5-ol] | 38 | 83 |
| NC(=O)[C@H](F)c1c(F)cccc1CC[C@]1(O)CCC2=Cc3c(cnn3-c3ccc(F)cc3)C[C@@]21C1CC1 [Example 57, (2R)-2-(2-{2-[(4aR,5R)-4a-Cyclopropyl-1-(4-fluorophenyl)-5-hydroxy-1,4,4a,5,6,7-hexahydrocyclopenta[f]indazol-5-yl]ethyl}-6-fluorophenyl)-2-fluoroethanamide] | 106 | 86 |
| CC[C@]12Cc3cnn(-c4ccc(F)cc4)c3C=C1CC[C@@]2(O)CCc1ccccn1 [Example 16, (4aS,5R)-4a-Ethyl-1-(4-fluorophenyl)-5-[2-(pyridin-2-yl)ethyl]-1,4,4a,5,6,7-hexahydrocyclopenta[f]indazol-5-ol] | 93 | 79 |
